# Measured values reported in patent US11427567B2, “Imidazolyl pyrimidinylamine compounds as CDK2 inhibitors” (Incyte Corporation, priority 2019, dated 2022).
# Target: CDK2/Cyclin E1 (Homo sapiens (Human), UniProt P24941)
# Assay: CDK2/Cyclin E1 HTRF enzyme activity assay (Example A)
# Type: biochemical
# Conditions: 1 mM ATP
# Description: Assays were conducted in white 384-well polystyrene plates in a final reaction volume of 8 μL. […] HTRF signals were read after 1 hour at room temperature on a PHERAstar FS plate reader (BMG Labtech). Data was analyzed with IDBS XLFit and GraphPad Prism 5.0 software using a three or four parameter dose response curve to determine IC50 for each compound.
row,IC50,SMILES
1,≤ 50 nM,"CS(=O)(=O)N1CCC(Nc2ncc(C(F)(F)F)c(-c3cn(-c4ccc(CCN5CCCC5)cc4C#N)cn3)n2)CC1 [Example 434, 2-(4-(2-((1-(Methylsulfonyl)piperidin-4-yl)amino)-5-(trifluoromethyl)pyrimidin-4-yl)-1H-imidazol-1-yl)-5-(2-(pyrrolidin-1-yl)ethyl)benzonitrile]"
2,≤ 50 nM,"C[C@@]1(O)CCN(Cc2cccc(-n3cnc(-c4nc(NC5CCN(S(C)(=O)=O)CC5)ncc4C(F)(F)F)c3)c2Cl)C1 [Example 363, (R)-1-(2-Chloro-3-(4-(2-((1-(methylsulfonyl)piperidin-4-yl)amino)-5-(trifluoromethyl)pyrimi-din-4-yl)-1H-imidazol-1-yl)benzyl)-3-methylpyrrolidin-3-ol]"
3,≤ 50 nM,"CNCc1ccc(-n2cnc(-c3nc(NC4CCN(S(C)(=O)=O)CC4)ncc3C(F)(F)F)c2)c(F)c1 [Example 266, 4-(1-(2-Fluoro-4-((methylamino)methyl)phenyl)-1H-imidazol-4-yl)-N-(1-(methylsulfonyl)piperidin-4-yl)-5-(trifluoromethyl)pyrimidin-2-amine]"
4,≤ 50 nM,"CCN1CCN(Cc2cc(F)c(-n3cnc(-c4nc(NC5CCN(S(C)(=O)=O)CC5)ncc4C(F)(F)F)c3)c(Cl)c2)CC1 [Example 396, 4-(1-(2-Chloro-4-((4-ethylpiperazin-1-yl)methyll)-6-fluorophenyl)-1H-imidazol-4-yl)-N-(1-(methylsulfonyl)piperidin-4-yl)-5-(trifluoromethyl)pyrimidin-2-amine]"
5,≤ 50 nM,"CS(=O)(=O)N1CCC(Nc2ncc(C(F)(F)F)c(-c3cn(-c4cccc(CN5CC[C@@H](O)C5)c4Cl)cn3)n2)CC1 [Example 364, (R)-1-(2-Chloro-3-(4-(2-((1-(methyslulfonyl)piperidin-4-yl)amino)-5-(trifluoromethyl)pyrimi-din-4-yl)-1H-imidazol-1-yl)benzyl)pyrrolidin-3-ol]"
6,≤ 50 nM,"CN1CCN(Cc2ccc(-n3cnc(-c4nc(NC5CCN(S(C)(=O)=O)CC5)ncc4C(F)(F)F)c3)c(Cl)c2)CC1 [Example 209, 4-(1-(2-Chloro-4-((4-methylpiperazin-1-yl)methyl)phenyl)-1H-imidazol-4-yl)-N-(1-(methylsulfonyl)-piperidin-4-yl)-5-(trifluoromethyl)-pyrimidin-2-amine]"
7,≤ 50 nM,CS(=O)(=O)N1CCC(Nc2ncc(C(F)(F)F)c(-c3cn(-c4ccc(CN5CC6CC5CO6)cc4Cl)cn3)n2)CC1 (stereo not drawn) [Example 213]
8,≤ 50 nM,"CS(=O)(=O)N1CCC(Nc2ncc(C(F)(F)F)c(-c3cn(-c4ccc(CN5CCN6CCCC6C5)cc4Cl)cn3)n2)CC1 (stereo not drawn) [Example 212, 4-(1-(2-Chloro-4-((hexahydropyrrolo-[1,2-a]pyrazin-2(1H)-yl)methyl)phenyl)-1H-imidazol-4-yl)-N-(1-(methylsulfonyl)-piperidin-4-yl)-5-(trifluoromethyl)-pyrimidin-2-amine]"
9,≤ 50 nM,"CS(=O)(=O)N1CCC(Nc2ncc(C(F)(F)F)c(-c3cn(-c4ccccc4Cl)cn3)n2)CC1 [Example 55, 4-(1-(2-Chlorophenyl)-1H-imidazol-4-yl)-N-(1-(methylsulfonyl)piperidin-4-yl)-5-(trifluoromethyl)pyrimidin-2-amine]"
10,≤ 50 nM,"CS(=O)(=O)N1CCC(Nc2ncc(C(F)(F)F)c(-c3cn(-c4ccc(CN5CC(O)C5)cc4Cl)cn3)n2)CC1 [Example 199, 1-(3-Chloro-4-(4-(2-((1-(methylsulfonyl)-piperidin-4-yl)amino)-5-(trifluoromethyl)-pyrimidin-4-yl)-1H-imidazol-1-yl)benzyl)-azetidin-3-ol]"
11,≤ 50 nM,"CCN1CCN(Cc2ccc(-n3cnc(-c4nc(NC5CCN(S(C)(=O)=O)CC5)ncc4C(F)(F)F)c3)c(C#N)c2)CC1 [Example 339, 5-((4-Ethylpiperazin-1-yl)methyl)-2-(4-(2-((1-(methylsulfonyl)piperidin-4-yl)amino)-5-(trifluoromethyl)pyrimidin-4-yl)-1H-imidazol-1-yl)benzonitrile]"
12,≤ 50 nM,"CS(=O)(=O)N1CCC(Nc2ncc(C(F)(F)F)c(-c3cn(-c4cccc(CN5CCC5)c4C(F)(F)F)cn3)n2)CC1 [Example 380, 4-(1-(3-(Azetidin-1-ylmethyl)-2-(trifluoromethyl)phenyl)-1H-imidazol-4-yl)-N-(1-(methylsulfonyl)piperidin-4-yl)-5-(trifluoromethyl)pyrimi-din-2-amine]"
13,≤ 50 nM,"Cn1cncc1-c1ccc(-n2cnc(-c3nc(NC4CCN(S(C)(=O)=O)CC4)ncc3C(F)(F)F)c2)c(Cl)c1 [Example 124, 4-(1-(2-Chloro-4-(1-methyl-1H-imidazol-5-yl)phenyl)-1H-imidazol-4-yl)-N-(1-(methylsulfonyl)-piperidin-4-yl)-5-(trifluoromethyl)-pyrimidin-2-amine]"
14,≤ 50 nM,"CN1CCN(Cc2ccc(-n3cnc(-c4nc(NC5CCN(S(C)(=O)=O)CC5)ncc4C(F)(F)F)c3)c(Cl)c2)CC1=O [Example 211, 4-(3-Chloro-4-(4-(2-((1-(methylsulfonyl)-piperidin-4-yl)amino)-5-(trifluoromethyl)-pyrimidin-4-yl)-1H-imidazol-1-yl)benzyl)-1-methylpiperazin-2-one]"
15,≤ 50 nM,"CC1(O)CN(Cc2ccc(-n3cnc(-c4nc(NC5CCN(S(C)(=O)=O)CC5)ncc4C(F)(F)F)c3)c(Cl)c2)C1 [Example 194, 1-(3-Chloro-4-(4-(2-((1-(methylsulfonyl)-piperidin-4-yl)amino)-5-(trifluoromethyl)-pyrimidin-4-yl)-1H-imidazol-1-yl)benzyl)-3-methylazetidin-3-ol]"
16,≤ 50 nM,"CN(C)C1CCN(c2ccc(-n3cnc(-c4nc(NC5CCN(S(C)(=O)=O)CC5)ncc4C(F)(F)F)c3)c(Cl)c2)C1 (stereo not drawn) [Example 143, 4-(1-(2-Chloro-4-(3-(dimethylamino)-pyrrolidin-1-yl)-phenyl)-1H-imidazol-4-yl)-N-(1-(methylsulfonyl)-piperidin-4-yl)-5-(trifluoromethyl)-pyrimidin-2-amine]"

# The remaining lines, values behind:
row,SMILES,IC50
1,"Cc1nc(-c2nc(N[C@H]3CCN(S(C)(=O)=O)C[C@H]3F)ncc2C(F)(F)F)cn1-c1ccc(CN2CCN(C)CC2)cc1F [Example 387, N-((3R,4S)-3-Fluoro-1-(methylsulfonyl)piperidin-4-yl)-4-(1-(2-fluoro-4-((4-methylpiperazin-1-yl)methyl)phenyl)-2-methyl-1H-imidazol-4-yl)-5-(trifluoromethyl)pyrimidin-2-amine]",≤ 50 nM
2,"CS(=O)(=O)N1CCC(Nc2ncc(C(F)(F)F)c(-c3cn(-c4ccccc4Br)cn3)n2)CC1 [Example 442, 4-(1-(2-Bromophenyl)-1H-imidazol-4-yl)-N-(1-(methylsulfonyl)piperidin-4-yl)-5-(trifluoromethyl)pyrimidin-2-amine]",≤ 50 nM
3,"Cc1nc(CN2CC(C)(C)C2)ccc1-n1cnc(-c2nc(NC3CCN(S(C)(=O)=O)CC3)ncc2C(F)(F)F)c1 [Example 265, 4-(1-(6-((3,3-Dimethylazetidin-1-yl)methyl)-2-methylpyridin-3-yl)-1H-imidazol-4-yl)-N-(1-(methylsulfonyl)piperidin-4-yl)-5-(trifluoromethyl)pyrimidin-2-amine]",≤ 50 nM
4,"Cc1nc(-c2nc(NC3CCN(S(C)(=O)=O)CC3)ncc2C(F)(F)F)cn1-c1ccc(CN2CC(C(C)(C)O)C2)cc1F [Example 282, 2-(1-(3-Fluoro-4-(2-methyl-4-(2-((1-(methylsulfonyl)piperidin-4-yl)amino)-5-(trifluoromethyl)pyrimidin-4-yl)-1H-imidazol-1-yl)benzyl)azetidin-3-yl)propan-2-ol]",≤ 50 nM
5,"Cc1nccc(-n2cnc(-c3nc(NC4CCN(S(C)(=O)=O)CC4)ncc3C(F)(F)F)c2)c1Cl [Example 296, 4-(1-(3-Chloro-2-methylpyridin-4-yl)-1H-imidazol-4-yl)-N-(1-(methylsulfonyl)piperidin-4-yl)-5-(trifluoromethyl)pyrimidin-2-amine]",≤ 50 nM
6,"CNCCN(C)c1ccc(-n2cnc(-c3nc(NC4CCN(S(C)(=O)=O)CC4)ncc3C(F)(F)F)c2)c(C#N)c1 [Example 431, 5-(Methyl(2-(methylamino)ethyl)amino)-2-(4-(2-((1-(methylsulfonyl)piperidin-4-yl)amino)-5-(trifluoromethyl)pyrimidin-4-yl)-1H-imidazol-1-yl)benzonitrile]",≤ 50 nM
7,"Cc1nc(-c2nc(N[C@H]3CCN(S(C)(=O)=O)C[C@H]3F)ncc2C(F)(F)F)cn1-c1ccnc(C#N)c1F [Example 310, 3-Fluoro-4-(4-(2-(((3R,4S)-3-fluoro-1-(methylsulfonyl)piperidin-4-yl)amino)-5-(trifluoromethyl)pyrimidin-4-yl)-2-methyl-1H-imidazol-1-yl)picolinonitrile]",≤ 50 nM
8,"CC(C)(O)Cn1cnc(-c2nc(NC3CCN(S(=O)(=O)C4CC4)CC3)ncc2C(F)(F)F)c1 [Example 30, 1-(4-(2-((1-(Cyclopropylsulfonyl)piperidin-4-yl)amino)-5-(trifluoromethyl)pyrimidin-4-yl)-1H-imidazol-1-yl)-2-methylpropan-2-ol]",≤ 50 nM
9,"CS(=O)(=O)N1CCC(Nc2ncc(C(F)(F)F)c(-c3cn(-c4ccnc(C#N)c4Cl)cn3)n2)CC1 [Example 307, 3-Chloro-4-(4-(2-((1-(methylsulfonyl)piperidin-4-yl)amino)-5-(trifluoromethyl)pyrimidin-4-yl)-1H-imidazol-1-yl)picolinonitrile]",≤ 50 nM
10,"CS(=O)(=O)N1CCC(Nc2ncc(C(F)(F)F)c(-c3cn(-c4ccccc4F)c(Br)n3)n2)CC1 [Example 461, 4-(2-Bromo-1-(2-fluorophenyl)-1H-imidazol-4-yl)-N-(1-(methylsulfonyl)piperidin-4-yl)-5-(trifluoromethyl)pyrimidin-2-amine]",≤ 50 nM
11,"CC(C)(O)Cn1cnc(-c2nc(NC3CCN(S(=O)(=O)c4ccccn4)CC3)ncc2C(F)(F)F)c1 [Example 338, 2-Methyl-1-(4-(2-((1-(pyridin-2-ylsulfonyl)piperidin-4-yl)amino)-5-(trifluoromethyl)pyrimidin-4-yl)-1H-imidazol-1-yl)propan-2-ol]",≤ 50 nM
